The values below come from patent US11192890B2, “FGFR kinase inhibitors and pharmaceutical uses” (AUCKLAND UNISERVICES LIMITED, priority 2017, dated 2021).

The subject of one series is SUM52 cells. The series is described as follows: Oxic and anoxic anti-proliferative activity of the prodrugs. Conditions: for Hypoxic Cytotoxicity Ratio (HCR), SUM52: ratio of oxic and anoxic IC50.
The subject of series [1] is FGFR1 in H520 cells (phospho-ERK1/2). The series is described as follows: Drug washout Western blot assay, H520 cells. Conditions: H520, 2 hours exposure; for reversible or irreversible inhibition of FGFR1 in cells: 100, 300 and 600 nM, with and without washout. The class given is cell-based. (A western blot detects proteins with antibodies after separation by electrophoresis.)

A further series has as its system SW780 cells. The series is described as follows: Oxic and anoxic anti-proliferative activity of the prodrugs. The format is cell-based. Conditions: Homo sapiens, SW780; oxic conditions; read-out: Cellular Anti-proliferative IC50, SW780, Oxic.
The next series relates to H520 cells. Described as above.
[2] abbreviates: read-out: Cellular Anti-proliferative IC50, SUM52, Anoxic, 4 hours of anoxia, remainder of assay oxic.
Where [3] appears, read: read-out: Cellular Anti-proliferative IC50, SUM52, Oxic, oxic conditions.
The mark [4] stands for this setting: read-out: Cellular Anti-proliferative IC50, H520, Oxic, oxic conditions.

The structures appear in SMILES notation. Read-outs that look alike come from different tables or passages of the source.

With `COc1cc(OC)c(Cl)c(N2Cc3cnc(Nc4ccccc4)nc3N(C3CCN(C(=O)/C=C/C[N+](C)(C)Cc4c([N+](=O)[O-])ncn4C)CC3)C2=O)c1.[Br-]` [Compound 217, (E)-4-(4-(3-(2-chloro-3,5-dimethoxyphenyl)-2-oxo-7-(phenylamino)-3,4-dihydropyrimido[4,5-d]pyrimidin-1(2H)-yl)piperidin-1-yl)-N,N-dimethyl-N-((1-methyl-4-nitro-1H-imidazol-5-yl)methyl)-4-oxobut-2-en-1-aminium bromide], the melting point (as a rule, the temperature of the solid-liquid transition) lay within 181 to 184 °C. Also, the “Hypoxic Cytotoxicity Ratio (HCR), SUM52” value in the series with SUM52 cells came out at 7. Moreover, the IC50 (in general, the concentration that inhibits the measured activity by half) with SUM52 cells (setting [2]) worked out at 4 nM. Also, the IC50 in the series on SUM52 cells (setting [3]) is 24 nM.

Compound `COc1cc(OC)c(Cl)c(N2Cc3cnc(Nc4ccc(F)cc4)nc3N(C3CCN(C(=O)/C=C/C[N+](C)(C)Cc4c([N+](=O)[O-])ncn4C)CC3)C2=O)c1Cl.O=C([O-])C(F)(F)F` [Compound 205, (E)-4-(4-(3-(2,6-dichloro-3,5-dimethoxyphenyl)-7-((4-fluorophenyl)amino)-2-oxo-3,4-dihydropyrimido[4,5-d]pyrimidin-1(2H)-yl)piperidin-1-yl)-N,N-dimethyl-N-((1-methyl-4-nitro-1H-imidazol-5-yl)methyl)-4-oxobut-2-en-1-aminium 2,2,2-trifluoroacetate] displayed a melting point of 162 to 165 °C. In addition, in series [1], the “reversible or irreversible inhibition of FGFR1 in cells” value was “reversible inhibitors”. Moreover, the “concentration required to suppress FGFR1 signalling through phospho-ERK1/2” value in series [1] (tested at 100, 300 and 600 nM) was over 300 nM. Besides, the IC50 with SW780 cells is 1470 nM. Besides, the 50% inhibitory concentration (IC50) in the series on H520 cells (setting [4]) turned out to be 668 nM. Moreover, the “Hypoxic Cytotoxicity Ratio (HCR), SUM52” value in the series with SUM52 cells is given as 6. The IC50 with SUM52 cells (setting [2]) was found to be 4 nM. Further, the IC50 in the series on SUM52 cells (setting [3]) is 23 nM.

With `COc1cc(OC)c(Br)c(-c2cc3cnc(NC(C)C)cc3n(C3CCN(C(=O)/C=C/C[N+](C)(C)Cc4c([N+](=O)[O-])ncn4C)CC3)c2=O)c1Br.[Br-]` [Compound 216, (E)-4-(4-(3-(2,6-dibromo-3,5-dimethoxyphenyl)-7-(isopropylamino)-2-oxo-1,6-naphthyridin-1(2H)-yl)piperidin-1-yl)-N,N-dimethyl-N-((1-methyl-4-nitro-1H-imidazol-5-yl)methyl)-4-oxobut-2-en-1-aminium bromide], the melting point was 219 °C. Further, in the series with SUM52 cells, the “Hypoxic Cytotoxicity Ratio (HCR), SUM52” value is on record as 59. Besides, the IC50 in the series on SUM52 cells (setting [2]) came to 6 nM. For the same compound, the IC50 in the series with SUM52 cells (setting [3]) was 346 nM.

Turning to `COc1cc(OC)c(Cl)c(N2Cc3cnc(Nc4ccc(N5CCOCC5)cc4)nc3N(C3CCN(C(=O)/C=C/C[N+](C)(C)Cc4c([N+](=O)[O-])ncn4C)CC3)C2=O)c1Cl.[Br-]` [Compound 218, (E)-4-(4-(3-(2,6-dichloro-3,5-dimethoxyphenyl)-7-((4-morpholinophenyl)amino)-2-oxo-3,4-dihydropyrimido[4,5-d]pyrimidin-1(2H)-yl)piperidin-1-yl)-N,N-dimethyl-N-((1-methyl-4-nitro-1H-imidazol-5-yl)methyl)-4-oxobut-2-en-1-aminium bromide], the melting point is over 295 °C. For the same compound, the “Hypoxic Cytotoxicity Ratio (HCR), SUM52” value with SUM52 cells worked out at 4. Besides, the half-maximal inhibitory concentration (IC50) in the series with SUM52 cells (setting [2]) turned out to be 3 nM. Also, the half-maximal inhibitory concentration (IC50) with SUM52 cells (setting [3]) turned out to be 14 nM.

For `COc1cc(OC)cc(N2Cc3cnc(Nc4ccc(N5CCOCC5)cc4)nc3N(C3CCN(C(=O)/C=C/C[N+](C)(C)Cc4c([N+](=O)[O-])ncn4C)CC3)C2=O)c1.[Br-]` [Compound 220, (E)-4-(4-(3-(3,5-dimethoxyphenyl)-7-((4-morpholinophenyl)amino)-2-oxo-3,4-dihydropyrimido[4,5-d]pyrimidin-1(2H)-yl)piperidin-1-yl)-N,N-dimethyl-N-((1-methyl-4-nitro-1H-imidazol-5-yl)methyl)-4-oxobut-2-en-1-aminium bromide], the melting point lay within 192 to 195 °C. In the series on SUM52 cells, the “Hypoxic Cytotoxicity Ratio (HCR), SUM52” value stood at 48. Further, the half-maximal inhibitory concentration (IC50) in the series on SUM52 cells (setting [2]) turned out to be 36 nM. In the series on SUM52 cells (setting [3]), the IC50 was found to be 1720 nM.

On to `COc1cc(OC)c(Cl)c(N2Cc3cnc(Nc4ccc(N5CCOCC5)cc4)nc3N(C3CCN(C(=O)/C=C/C[N+](C)(C)Cc4c([N+](=O)[O-])ncn4C)CC3)C2=O)c1.[Br-]` [Compound 219, (E)-4-(4-(3-(2-chloro-3,5-dimethoxyphenyl)-7-((4-morpholinophenyl)amino)-2-oxo-3,4-dihydropyrimido[4,5-d]pyrimidin-1(2H)-yl)piperidin-1-yl)-N,N-dimethyl-N-((1-methyl-4-nitro-1H-imidazol-5-yl)methyl)-4-oxobut-2-en-1-aminium bromide], for which the melting point was in the range of 241 to 244 °C. The “Hypoxic Cytotoxicity Ratio (HCR), SUM52” value in the series on SUM52 cells turned out to be 22. In addition, in the series with SUM52 cells (setting [2]), the IC50 came to 2 nM. In the series with SUM52 cells (setting [3]), the IC50 is 52 nM.

As for `COc1cc(OC)c(Cl)c(N2Cc3cnc(NC4CCOCC4)nc3N(C3CCN(C(=O)/C=C/C[N+](C)(C)Cc4c([N+](=O)[O-])ncn4C)CC3)C2=O)c1Cl.O=C([O-])C(F)(F)F` [Compound 203, (E)-4-(4-(3-(2,6-dichloro-3,5-dimethoxyphenyl)-2-oxo-7-((tetrahydro-2H-pyran-4-yl)amino)-3,4-dihydropyrimido[4,5-d]pyrimidin-1(2H)-yl)piperidin-1-yl)-N,N-dimethyl-N-((1-methyl-4-nitro-1H-imidazol-5-yl)methyl)-4-oxobut-2-en-1-aminium 2,2,2-trifluoroacetate], the melting point lay within 157 to 160 °C. In the series with SUM52 cells, the “Hypoxic Cytotoxicity Ratio (HCR), SUM52” value came out at 26. Also, the IC50 in the series on SUM52 cells (setting [2]) stood at 37 nM. For the same compound, in the series with SUM52 cells (setting [3]), the IC50 came out at 961 nM.

In turn, `COc1cc(OC)c(Cl)c(N2Cc3cnc(NC(C)C)nc3N([C@H]3CCN(C(=O)/C=C/C[N+](C)(C)Cc4c([N+](=O)[O-])ncn4C)C3)C2=O)c1Cl.[Br-]` [Compound 201, (S,E)-4-(3-(3-(2,6-dichloro-3,5-dimethoxyphenyl)-7-(isopropylamino)-2-oxo-3,4-dihydropyrimido[4,5-d]pyrimidin-1(2H)-yl)pyrrolidin-1-yl)-N,N-dimethyl-N-((1-methyl-4-nitro-1H-imidazol-5-yl)methyl)-4-oxobut-2-en-1-aminium bromide] had a melting point of 184 to 187 °C. Moreover, the “reversible or irreversible inhibition of FGFR1 in cells” value in series [1] was “reversible inhibitors”. The IC50 with SW780 cells came out at 1990 nM. Besides, the IC50 in the series with H520 cells (setting [4]) was found to be 902 nM. In the series with SUM52 cells, the “Hypoxic Cytotoxicity Ratio (HCR), SUM52” value is listed as 16. Also, the IC50 with SUM52 cells (setting [2]) was determined as 38 nM. For the same compound, the IC50 in the series on SUM52 cells (setting [3]) worked out at 612 nM.

Regarding `COc1cc(OC)c(Cl)c(-c2cc3cnc(NC(C)C)cc3n(C3CCN(C(=O)/C=C/C[N+](C)(C)Cc4c([N+](=O)[O-])ncn4C)CC3)c2=O)c1Cl.[Br-]` [Compound 215, (E)-4-(4-(3-(2,6-dichloro-3,5-dimethoxyphenyl)-7-(isopropylamino)-2-oxo-1,6-naphthyridin-1(2H)-yl)piperidin-1-yl)-N,N-dimethyl-N-((1-methyl-4-nitro-1H-imidazol-5-yl)methyl)-4-oxobut-2-en-1-aminium bromide], the melting point is 202 to 205 °C. In the series with SW780 cells, the IC50 came to 3500 nM. The “Hypoxic Cytotoxicity Ratio (HCR), H520” value with H520 cells (ratio of oxic and anoxic IC50) came to 19. Also, the IC50 in the series with H520 cells (read-out: Cellular Anti-proliferative IC50, H520, Anoxic, 4 hours of anoxia, remainder of assay oxic) worked out at 209 nM. The 50% inhibitory concentration (IC50) in the series on H520 cells (setting [4]) was determined as 4020 nM. Also, the “Hypoxic Cytotoxicity Ratio (HCR), SUM52” value in the series with SUM52 cells is on record as 106. The concentration for half-maximal inhibition (IC50) with SUM52 cells (setting [2]) worked out at 11 nM. For the same compound, the IC50 with SUM52 cells (setting [3]) is 1190 nM.

Consider `COc1cc(OC)c(Cl)c(N2Cc3cnc(Nc4ccn(C)n4)nc3N(C3CCN(C(=O)/C=C/CN(C)C)CC3)C2=O)c1Cl` [Compound 160, (E)-3-(2,6-dichloro-3,5-dimethoxyphenyl)-1-(1-(4-(dimethylamino)but-2-enoyl)piperidin-4-yl)-7-((1-methyl-1H-pyrazol-3-yl)amino)-3,4-dihydropyrimido[4,5-d]pyrimidin-2(1H)-one], for which the melting point worked out at 203 °C.

On to `COc1cc(OC)c(Cl)c(-c2cc3cnc(NC(C)C)cc3n(C3CCN(C(=O)/C=C/CN(C)C)CC3)c2=O)c1Cl` [Compound 149, (E)-3-(2,6-dichloro-3,5-dimethoxyphenyl)-1-(1-(4-(dimethylamino)but-2-enoyl)piperidin-4-yl)-7-(isopropylamino)-1,6-naphthyridin-2(1H)-one], for which the melting point is 243 to 246 °C.
